The source of these data is US8134015B2, “Compound inhibiting in vivo phosphorous transport and medicine containing the same” (Kyowa Hakko Kirin Co., Ltd., priority 2003, dated 2012).

As a reminder, the IC50 is the midpoint of a concentration-inhibition curve. In general, inhibition refers to the relative decrease from the control value, in per cent. A low value points to little suppression.

One assay has as its target T1, rat NaPi-2b (Rattus norvegicus, UniProt Q9JJ09).
T1 construct: expressed in transfected cells; host or cells: Xenopus oocytes injected with cRNA
T1 sequence (Q9JJ09 1-695): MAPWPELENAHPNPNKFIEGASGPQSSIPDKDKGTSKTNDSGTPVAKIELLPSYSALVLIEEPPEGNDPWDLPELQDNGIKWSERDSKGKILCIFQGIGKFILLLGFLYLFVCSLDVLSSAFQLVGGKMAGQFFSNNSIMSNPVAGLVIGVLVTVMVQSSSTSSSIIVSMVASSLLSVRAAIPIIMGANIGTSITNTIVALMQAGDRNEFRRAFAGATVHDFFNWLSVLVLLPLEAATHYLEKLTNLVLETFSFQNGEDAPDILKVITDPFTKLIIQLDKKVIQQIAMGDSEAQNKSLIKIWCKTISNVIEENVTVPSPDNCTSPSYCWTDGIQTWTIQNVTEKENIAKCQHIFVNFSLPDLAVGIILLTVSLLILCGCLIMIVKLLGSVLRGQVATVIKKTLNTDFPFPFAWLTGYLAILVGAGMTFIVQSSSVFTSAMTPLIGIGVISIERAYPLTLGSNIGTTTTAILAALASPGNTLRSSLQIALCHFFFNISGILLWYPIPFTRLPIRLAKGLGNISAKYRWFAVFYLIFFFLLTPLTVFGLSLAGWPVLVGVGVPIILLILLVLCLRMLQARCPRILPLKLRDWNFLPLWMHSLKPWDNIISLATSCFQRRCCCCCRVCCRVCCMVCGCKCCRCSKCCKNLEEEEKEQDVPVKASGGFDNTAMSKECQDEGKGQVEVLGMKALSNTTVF
The assay can be described thus: Sodium-dependent phosphate uptake of Xenopus oocytes which expressed NaPi-2b (32P). In kind it is cell-based. Particulars: Xenopus oocytes expressing rat NaPi-2b, 32P radioactive phosphorus; read-out: IC50 (phosphate uptake inhibitory activity). The method in brief: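 Read-out is 32P phosphate uptake into Xenopus oocytes expressing rat intestinal NaPi-2b (cRNA injection, 2-day culture). Inhibition at 300 μM and 100 μM was derived from a single inhibition curve and given as percent.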
Regarding `CCN(CC)CCN(C)Cc1cccc(C(=O)Nc2ccc(I)cc2C(=O)N/N=C/c2ccc(Cl)c(C(F)(F)F)c2)c1` [Compound 477, N-[2-(4-chloro-3-trifluoromethyl-benzylidene-hydrazinocarbonyl)-4-iodo-phenyl]-3-{[(2-diethylamino-ethyl)-methyl-amino]-methyl}-benzamide], the IC50 was less than 3 µM.
For the molecule `Cc1csc(NC(=O)c2cccc(CSCCCO)c2)c1C(=O)N/N=C/c1cccc(F)c1` [Compound 560, N-[3-(3-Fluoro-benzylidene-hydrazinocarbonyl)-4-methyl-thiophen-2-yl]-3-(3-hydroxy-propylsulfanylmethyl)-benzamide], the half-inhibitory concentration (IC50) was 1.09 µM.
Turning to `Cc1cccc(/C=N/NC(=O)c2cc(Br)ccc2NC(=O)c2cccnc2)c1` [Compound 174, N-[4-Bromo-2-(3-methyl-benzylidene-hydrazinocarbonyl)-phenyl]-nicotinamide], the IC50 came out at 12.5 µM.
As to `Cc1ccc(/C=N/NC(=O)c2cc(Br)ccc2NC(=O)c2ccc(CN3CCC(O)CC3)cc2)cc1C` [Compound 324, N-[4-Bromo-2-(3,4-dimethyl-benzylidene-hydrazinocarbonyl)-phenyl]-4-(4-hydroxy-piperidin-1-ylmethyl)-benzamide], the IC50 turned out to be 4.43 µM.
On the same count and under the same terms, next, `O=C(Nc1sccc1C(=O)N/N=C/c1ccc(Cl)c(C(F)(F)F)c1)c1cccc(CSCCCO)c1` [Compound 662, N-[3-(4-Chloro-3-trifluoromethyl-benzylidene-hydrazinocarbonyl)-thiophen-2-yl]-3-(3-hydroxy-propylsulfanylmethyl)-benzamide]: 3.2 µM.
As for `CCN(CC)CCN(C)Cc1cccc(C(=O)Nc2ccc(OCCCCF)cc2C(=O)N/N=C/c2ccc(OC)cc2)c1` [Compound 1061, 3-{[(2-Diethylamino-ethyl)-methyl-amino]-methyl}-N-[4-(4-fluoro-butoxy)-2-(4-methoxy-benzylidene-hydrazinocarbonyl)-phenyl]-benzamide], the IC50 is 1.99 µM.
The same measure, in the same setting: with `CCSCCNCc1ccc(C(=O)Nc2ccc(Br)cc2C(=O)N/N=C/c2ccc(Cl)c(C(F)(F)F)c2)cc1` [Compound 769, N-[4-Bromo-2-(4-chloro-3-trifluoromethyl-benzylidene-hydrazinocarbonyl)-phenyl]-4-[(2-ethylsulfanyl-ethylamino)-methyl]-benzamide] the figure was 4.44 µM; with `CCN(CC)CCN(C)Cc1cccc(C(=O)Nc2ccc(N3CCN(CCO)CC3)cc2C(=O)N/N=C/c2ccc(Cl)c(C(F)(F)F)c2)c1` [Compound 924, N-{2-(4-Chloro-3-trifluoromethyl-benzylidene-hydrazinocarbonyl)-4-[4-(2-hydroxy-ethyl)-piperazin-1-yl]-phenyl}-3-{[(2-diethylamino-ethyl)-methyl-amino]-methyl}-benzamide], 40.2 µM; with `Cc1ccc(/C=N/NC(=O)c2c(NC(=O)c3cccc(CN(CC(C)O)CC(C)O)c3)sc3ccccc23)cc1C` (stereo not drawn) [Compound 792, 3-{[Bis-(2-hydroxy-propyl)-amino]-methyl}-N-[3-(3,4-dimethyl-benzylidene-hydrazinocarbonyl)-benzo[b]thiophen-2-yl]-benzamide], 1.26 µM.
The same measure, in the same setting: with `Cc1ccc(/C=N/NC(=O)c2cc(Cl)ccc2NC(=O)c2cccc(CSCc3ccco3)c2)cc1` [Compound 682, N-[4-Chloro-2-(4-methyl-benzylidene-hydrazinocarbonyl)-phenyl]-3-(furan-2-ylmethylsulfanylmethyl)-benzamide] the figure was 12.5 µM; with `CCN(CC)CCN(C)Cc1cccc(C(=O)Nc2ccc(OC)cc2C(=O)N/N=C/c2cccc(F)c2)c1` [Compound 1022, 3-{[(2-Diethylamino-ethyl)-methyl-amino]-methyl}-N-[2-(3-fluoro-benzylidene-hydrazinocarbonyl)-4-methoxy-phenyl]-benzamide], 3.23 µM; with `Cc1cccc(/C=N/NC(=O)c2cc(Br)ccc2NC(=O)c2ccncc2)c1` [Compound 168, N-[4-Bromo-2-(3-methyl-benzylidene-hydrazinocarbonyl)-phenyl]-isonicotinamide], 4.84 µM.
The same measure, in the same setting: with `Cc1ccc(/C=N/NC(=O)c2c(C)csc2NC(=O)c2cccc(CN3CCN(CCO)CC3)c2)cc1` [Compound 576, 3-[4-(2-Hydroxy-ethyl)-piperazin-1-ylmethyl]-N-[4-methyl-3-(4-methyl-benzylidene-hydrazinocarbonyl)-thiophen-2-yl]-benzamide] the figure was less than 3 µM; with `Cc1ccc(/C=N/NC(=O)c2cc(Br)ccc2NC(=O)c2ccc(CSCCO)cc2)cc1C` [Compound 265, N-[4-Bromo-2-(3,4-dimethyl-benzylidene-hydrazinocarbonyl)-phenyl]-4-(2-hydroxy-ethylsulfanylmethyl)-benzamide], less than 1 µM; with `Cc1ccc(/C=N/NC(=O)c2cc(Br)ccc2NC(=O)c2ccc(CNCCN3CCOCC3)cc2)cc1` [Compound 282, N-[4-Bromo-2-(4-methyl-benzylidene-hydrazinocarbonyl)-phenyl]-4-[(2-morpholin-4-yl-ethylamino)-methyl]-benzamide], 6.71 µM.
As to `O=C(Nc1ccccc1C(=O)N/N=C/c1ccccc1)c1ccccc1` [Compound 224, N-[2-(Benzylidene-hydrazinocarbonyl)-phenyl]-benzamide], the IC50 is 20 µM.
As to `O=C(Nc1ccccc1C(=O)N/N=C/c1cccc(Cl)c1)c1cccc(OC(F)(F)F)c1` [Compound 122], the concentration for half-maximal inhibition (IC50) is less than 3 µM.
Same read-out and setting: next, `Cc1ccc(/C=N/NC(=O)c2cc(Cl)ccc2NC(=O)c2cccc(CN(C)CCO)c2)cc1C` [Compound 398, N-[4-Chloro-2-(3,4-dimethyl-benzylidene-hydrazinocarbonyl)-phenyl]-3-{[(2-hydroxy-ethyl)-methyl-amino]-methyl}-benzamide]: less than 0.3 µM.
Still for that read-out and setting: with `Cc1ccc(/C=N/NC(=O)c2cc(Br)ccc2NC(=O)c2ccc(CN3CCC(CO)CC3)cc2)cc1C` [Compound 332, N-[4-Bromo-2-(3,4-dimethyl-benzylidene-hydrazinocarbonyl)-phenyl]-4-(4-hydroxymethyl-piperidin-1-ylmethyl)-benzamide] the figure was 2.87 µM; with `Cc1csc(NC(=O)c2cccc(CN(CCO)CCO)c2)c1C(=O)N/N=C/c1ccc(Cl)c(C(F)(F)F)c1` [Compound 790, 3-{[Bis-(2-hydroxy-ethyl)-amino]-methyl}-N-[3-(4-chloro-3-trifluoromethyl-benzylidene-hydrazinocarbonyl)-4-methyl-thiophen-2-yl]-benzamide], 4.32 µM.
Take `CN(CCO)Cc1cccc(C(=O)Nc2ccc(Cl)cc2C(=O)N/N=C/c2cccc(F)c2)c1` [Compound 394, N-[4-Chloro-2-(3-fluoro-benzylidene-hydrazinocarbonyl)-phenyl]-3-{[(2-hydroxy-ethyl)-methyl-amino]-methyl}-benzamide]: the 50% inhibitory concentration (IC50) was 0.95 µM.
For the molecule `O=C(Nc1ccc(Cl)cc1C(=O)N/N=C/c1cccc(F)c1)c1cccnc1` [Compound 184, N-[4-Chloro-2-(3-fluoro-benzylidene-hydrazinocarbonyl)-phenyl]-nicotinamide], the 50% inhibitory concentration (IC50) is 4.01 µM.
With `CCN(CC)CCNCc1cccc(C(=O)Nc2scc(C)c2C(=O)N/N=C/c2ccc(F)cc2)c1` [Compound 583, 3-[(2-Diethylamino-ethylamino)-methyl]-N-[3-(4-fluoro-benzylidene-hydrazinocarbonyl)-4-methyl-thiophen-2-yl]-benzamide], the IC50 is less than 3 µM.
Still for that read-out and setting: with `CCN(CC)CCN(C)Cc1cccc(C(=O)Nc2ccc(I)cc2C(=O)N/N=C/c2cccc(O)c2)c1` [Compound 480, 3-{[(2-Diethylamino-ethyl)-methyl-amino]-methyl}-N-[2-(3-hydroxy-benzylidene-hydrazinocarbonyl)-4-iodo-phenyl]-benzamide] the figure was less than 3 µM.

The same assay, now with this note: phosphate uptake, oocytes expressing rat NaPi-2b; 300 μM, determined from inhibition curve.
The molecule `CC(O)CN(Cc1cccc(C(=O)Nc2ccsc2C(=O)N/N=C/c2cccc(F)c2)c1)CC(C)O` (stereo not drawn) [Compound 992, 3-{[Bis-(2-hydroxy-propyl)-amino]-methyl}-N-[2-(3-fluoro-benzylidene-hydrazinocarbonyl)-thiophen-3-yl]-benzamide] gave an inhibition at 300 µM of 31.9%.
Take `Cc1csc(C(=O)N/N=C/c2cccc(F)c2)c1NC(=O)c1cccc(CSCCCO)c1` [Compound 527, N-[2-(3-Fluoro-benzylidene-hydrazinocarbonyl)-4-methyl-thiophen-3-yl]-3-(3-hydroxy-propylsulfanylmethyl)-benzamide]: the inhibition at 300 µM was 40.9%.
Same read-out and setting: next, `Cc1ccc(/C=N/NC(=O)c2scc(C)c2NC(=O)c2cccc(CSCCCO)c2)cc1C` [Compound 525, N-[2-(3,4-Dimethyl-benzylidene-hydrazinocarbonyl)-4-methyl-thiophen-3-yl]-3-(3-hydroxy-propylsulfanylmethyl)-benzamide]: 38.9%.
